Calls of active or inactive are those of the source.
Tests used:
Caspase-3 = biological target: T1, Caspase-3 (Homo sapiens, UniProt P42574); assay: Dose-response confirmation of uHTS inhibitor hits of Sentrin-Specific Protease 8 in a Caspase-3 Fluorescence assay.; assay type: functional
T1 sequence (P42574 whole entry): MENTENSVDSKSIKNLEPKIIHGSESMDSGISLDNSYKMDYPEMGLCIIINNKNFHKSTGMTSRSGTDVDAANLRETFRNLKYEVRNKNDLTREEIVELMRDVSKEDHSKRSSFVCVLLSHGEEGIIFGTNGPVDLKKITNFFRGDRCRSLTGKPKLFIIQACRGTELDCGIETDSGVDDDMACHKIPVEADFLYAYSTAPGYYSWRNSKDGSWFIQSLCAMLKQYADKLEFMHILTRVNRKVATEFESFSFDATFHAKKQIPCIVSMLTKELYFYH

[1] = biological target: T2, Sentrin-specific protease 8 (Homo sapiens, UniProt Q96LD8); assay type: functional
T2 sequence (Q96LD8 whole entry): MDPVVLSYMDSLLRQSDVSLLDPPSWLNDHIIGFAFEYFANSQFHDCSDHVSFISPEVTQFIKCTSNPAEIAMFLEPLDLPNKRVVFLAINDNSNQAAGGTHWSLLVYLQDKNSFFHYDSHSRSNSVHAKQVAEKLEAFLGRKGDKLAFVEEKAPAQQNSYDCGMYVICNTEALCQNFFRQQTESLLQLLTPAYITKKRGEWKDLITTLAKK

[2] = biological target: T2, Sentrin-specific protease 8; assay type: functional; remark: listed apart in the source
[3] = biological target: T3, Botulinum neurotoxin type A (Clostridium botulinum (strain Hall / ATCC 3502 / NCTC 13319 / Type A), UniProt P0DPI1); assay: High-throughput multiplex microsphere dose response for inhibitors of toxin protease, specifically Botulinum neurotoxin light chain A protease, compounds from Powder Set 01.; assay type: functional, Clostridium botulinum A str. ATCC 3502; conditions: read-out: EC50_MICROM
T3 sequence (P0DPI1 2-448 limits assumed): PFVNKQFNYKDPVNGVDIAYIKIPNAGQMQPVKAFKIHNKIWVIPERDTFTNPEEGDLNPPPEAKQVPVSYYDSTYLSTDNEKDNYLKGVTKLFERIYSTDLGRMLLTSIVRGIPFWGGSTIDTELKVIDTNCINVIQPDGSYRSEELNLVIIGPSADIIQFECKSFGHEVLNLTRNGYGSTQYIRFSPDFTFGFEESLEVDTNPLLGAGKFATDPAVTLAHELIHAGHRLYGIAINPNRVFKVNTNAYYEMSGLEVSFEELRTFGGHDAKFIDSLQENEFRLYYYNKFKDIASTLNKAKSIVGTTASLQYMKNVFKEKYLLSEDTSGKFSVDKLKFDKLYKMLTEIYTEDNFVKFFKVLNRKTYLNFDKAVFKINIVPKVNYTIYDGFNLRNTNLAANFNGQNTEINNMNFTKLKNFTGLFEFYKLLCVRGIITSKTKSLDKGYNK

Lethal factor = Lethal factor (Bacillus anthracis, UniProt P15917); assay: High-throughput multiplex microsphere dose response for inhibitors of toxin protease, specifically Lethal Factor protease, compounds from Powder Set 01.; assay type: functional, Bacillus anthracis str. A2012; conditions: read-out: EC50_MICROM
Chain of Lethal factor (P15917 whole entry): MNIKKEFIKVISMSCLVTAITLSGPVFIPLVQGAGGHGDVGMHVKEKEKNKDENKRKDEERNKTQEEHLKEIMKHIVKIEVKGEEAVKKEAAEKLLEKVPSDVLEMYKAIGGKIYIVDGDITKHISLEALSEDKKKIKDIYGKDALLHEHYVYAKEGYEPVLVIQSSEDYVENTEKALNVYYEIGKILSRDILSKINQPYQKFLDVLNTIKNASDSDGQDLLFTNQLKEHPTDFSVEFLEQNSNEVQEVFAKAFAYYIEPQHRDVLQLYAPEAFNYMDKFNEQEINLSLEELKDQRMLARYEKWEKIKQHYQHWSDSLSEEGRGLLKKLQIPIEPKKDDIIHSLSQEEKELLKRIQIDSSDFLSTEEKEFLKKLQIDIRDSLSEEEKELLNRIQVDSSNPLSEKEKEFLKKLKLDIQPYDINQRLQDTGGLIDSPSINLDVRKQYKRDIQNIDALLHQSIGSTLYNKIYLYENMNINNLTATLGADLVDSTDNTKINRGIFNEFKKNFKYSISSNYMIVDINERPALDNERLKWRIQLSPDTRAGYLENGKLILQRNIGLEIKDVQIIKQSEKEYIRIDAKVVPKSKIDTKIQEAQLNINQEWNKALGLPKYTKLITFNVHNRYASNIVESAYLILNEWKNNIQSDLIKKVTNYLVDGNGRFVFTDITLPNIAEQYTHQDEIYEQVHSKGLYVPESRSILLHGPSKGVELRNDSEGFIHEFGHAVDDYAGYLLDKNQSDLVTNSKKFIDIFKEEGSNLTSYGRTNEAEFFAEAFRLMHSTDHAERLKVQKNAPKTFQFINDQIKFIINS

[4] = biological target: Botulinum neurotoxin type F (Clostridium botulinum, UniProt P30996); assay: High-throughput multiplex microsphere dose response for inhibitors of toxin protease, specifically Botulinum neurotoxin light chain F protease, compounds from Powder Set 01.; assay type: functional, Clostridium botulinum Bf; conditions: read-out: EC50_MICROM
Chain of Botulinum neurotoxin type F (P30996 1-436 limits assumed): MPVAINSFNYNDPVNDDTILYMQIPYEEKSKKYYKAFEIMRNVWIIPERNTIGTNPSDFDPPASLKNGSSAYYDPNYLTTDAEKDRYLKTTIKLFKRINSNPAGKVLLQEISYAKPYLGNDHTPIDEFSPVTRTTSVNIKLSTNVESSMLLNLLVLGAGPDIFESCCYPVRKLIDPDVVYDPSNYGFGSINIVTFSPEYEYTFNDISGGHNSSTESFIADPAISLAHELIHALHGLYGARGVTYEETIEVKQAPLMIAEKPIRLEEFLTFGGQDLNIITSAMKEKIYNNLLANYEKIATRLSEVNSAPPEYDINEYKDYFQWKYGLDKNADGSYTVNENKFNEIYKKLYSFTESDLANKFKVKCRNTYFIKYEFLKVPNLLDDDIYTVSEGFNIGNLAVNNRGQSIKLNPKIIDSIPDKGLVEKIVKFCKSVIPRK

[5] = biological target: T3, Botulinum neurotoxin type A; assay: Confirmatory FRET assay using full length substrates for Botulinum neurotoxin light chain A protease, with Powder Set01.; assay type: functional
[6] = viability loss in HEK293T cells – cell-based, cherry-picks, cytotoxicity control for HIV Vif inhibitor project, dose response (AID 652208); assay type: functional
[7] = loss of viability in HepG2 cells – cell-based, CellTiter-Glo, cherry-picked, cytotoxicity control for Shn3 inhibitor project, dose response (AID 624134); assay type: functional
BJ [8] = assay: growth inhibition of engineered Ras-driven BJ cells – cell-based, alamar blue fluorescence, cherrypicked samples, dose response (AID 2631); assay type: functional; conditions: Homo sapiens;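 also: confirmatory dose-response assay in RAS-dependent BJ fibroblasts engineered with TERT, LT and ST, with cytotoxicity read by fluorescence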
[9] = reduction of Shn3 3'UTR-driven luciferase in osteoblasts – cell-based, Clone20 osteoblasts, firefly luciferase, cherry-picked, dose response (AID 624132); assay type: functional;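 also: firefly luciferase luminescence from reporter carrying the Shn3 3'UTR in osteoblasts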
[10] = biological target: T4, Rac GTPase-activating protein 1 (Homo sapiens, UniProt Q9H0H5); assay: blockers of MgcRacGAP-driven Rac1 GTP hydrolysis – biochemical, ADP Hunter fluorescence, primary and confirmatory, confirmation (AID 624330); assay type: functional
T4 sequence (Q9H0H5 whole entry): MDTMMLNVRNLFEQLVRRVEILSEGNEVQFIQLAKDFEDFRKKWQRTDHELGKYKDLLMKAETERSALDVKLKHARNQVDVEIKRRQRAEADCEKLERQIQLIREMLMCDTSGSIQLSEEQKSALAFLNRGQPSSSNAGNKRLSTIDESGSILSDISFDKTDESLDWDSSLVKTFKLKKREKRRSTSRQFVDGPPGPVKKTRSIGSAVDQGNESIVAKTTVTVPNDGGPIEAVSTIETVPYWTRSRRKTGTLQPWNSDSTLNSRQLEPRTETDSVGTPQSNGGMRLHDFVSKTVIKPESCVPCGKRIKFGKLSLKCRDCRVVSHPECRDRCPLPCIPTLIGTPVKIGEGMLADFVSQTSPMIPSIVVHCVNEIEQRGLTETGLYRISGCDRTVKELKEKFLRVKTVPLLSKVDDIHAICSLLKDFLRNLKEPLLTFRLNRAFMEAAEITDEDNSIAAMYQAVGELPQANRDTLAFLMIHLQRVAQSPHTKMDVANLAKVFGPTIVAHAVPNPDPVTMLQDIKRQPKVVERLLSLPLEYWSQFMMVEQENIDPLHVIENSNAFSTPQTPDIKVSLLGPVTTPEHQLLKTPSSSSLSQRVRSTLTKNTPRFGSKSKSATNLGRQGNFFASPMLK

[11] = non-specific 3'UTR reporter inhibition in Clone20-Shn3RL – cell-based, Renilla luciferase, cherry-picked, counter-screen for Shn3 inhibitor project, dose response (AID 624133); assay type: functional
BJ [12] = assay: BJ-TERT fibroblast viability loss – cell-based, RAS-independent, luminescence, dose response (AID 1933); assay type: functional; conditions: Homo sapiens
BJ [13] = assay: BJ-TERT-LT-ST fibroblast viability loss – cell-based, RAS-independent, luminescence, dose response (AID 1935); assay type: functional; conditions: Homo sapiens;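 also: BJ fibroblasts immortalized with TERT plus LT and ST oncogenes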
[14] = DRD fibroblast viability loss – cell-based, non-viral oncogenic, luminescence, dose response (AID 1934); assay type: functional; conditions: Homo sapiens
[15] = acridine orange displacement from DNA – biochemical, fluorescence polarization, cherry-pick, artefact control for RAD54 inhibitor project, dose response (AID 651673); assay type: functional
[16] = biological target: T5, DNA repair protein RAD52 homolog (Homo sapiens, UniProt P43351); assay type: functional, biochemical
T5 sequence (P43351 whole entry): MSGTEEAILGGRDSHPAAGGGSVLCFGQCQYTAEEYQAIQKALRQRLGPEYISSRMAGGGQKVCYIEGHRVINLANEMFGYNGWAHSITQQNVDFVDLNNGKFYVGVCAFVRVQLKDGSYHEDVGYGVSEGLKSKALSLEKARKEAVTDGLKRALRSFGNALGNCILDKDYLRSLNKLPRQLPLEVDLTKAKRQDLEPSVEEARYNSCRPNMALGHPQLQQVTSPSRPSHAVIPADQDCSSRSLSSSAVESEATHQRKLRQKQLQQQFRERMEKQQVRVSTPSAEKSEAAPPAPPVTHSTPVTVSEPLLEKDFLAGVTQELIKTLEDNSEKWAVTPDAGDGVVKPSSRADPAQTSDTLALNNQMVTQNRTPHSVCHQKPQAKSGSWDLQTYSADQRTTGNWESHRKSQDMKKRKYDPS

[17] = biological target: T6, DNA repair and recombination protein RAD54-like (Homo sapiens, UniProt Q92698); assay: RAD54 Holliday junction migration blockers – biochemical, fluorescence, cherry-picked samples, dose series, confirmation (AID 651657); assay type: functional
T6 sequence (Q92698 whole entry): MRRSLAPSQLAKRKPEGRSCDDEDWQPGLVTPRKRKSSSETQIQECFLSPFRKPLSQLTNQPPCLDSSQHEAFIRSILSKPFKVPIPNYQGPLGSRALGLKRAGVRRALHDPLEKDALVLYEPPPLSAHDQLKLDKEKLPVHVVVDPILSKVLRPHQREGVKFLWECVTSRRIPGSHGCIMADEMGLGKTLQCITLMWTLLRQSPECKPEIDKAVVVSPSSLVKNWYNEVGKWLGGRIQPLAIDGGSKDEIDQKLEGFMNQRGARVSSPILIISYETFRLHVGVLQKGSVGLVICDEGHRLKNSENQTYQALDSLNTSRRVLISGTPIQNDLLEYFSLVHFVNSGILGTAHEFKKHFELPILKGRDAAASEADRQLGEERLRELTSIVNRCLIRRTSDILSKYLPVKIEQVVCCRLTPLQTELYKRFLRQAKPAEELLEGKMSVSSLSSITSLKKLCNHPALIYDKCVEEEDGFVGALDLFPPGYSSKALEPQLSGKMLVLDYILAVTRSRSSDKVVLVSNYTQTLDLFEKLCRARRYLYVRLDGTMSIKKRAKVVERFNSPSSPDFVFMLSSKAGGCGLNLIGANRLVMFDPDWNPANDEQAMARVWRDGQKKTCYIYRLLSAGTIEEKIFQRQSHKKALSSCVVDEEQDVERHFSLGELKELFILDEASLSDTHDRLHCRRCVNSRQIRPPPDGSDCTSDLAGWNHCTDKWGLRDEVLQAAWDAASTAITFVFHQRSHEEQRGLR

Beta-lactamase [18] = biological target: T7, Beta-lactamase (Pseudomonas aeruginosa, UniProt Q79MP6); assay: inhibition of IMP-1 beta-lactamase activity – biochemical, epi-absorbance, selectivity assay for VIM-2 inhibitor project, dose response (AID 1920)
T7 sequence (Q79MP6 whole entry): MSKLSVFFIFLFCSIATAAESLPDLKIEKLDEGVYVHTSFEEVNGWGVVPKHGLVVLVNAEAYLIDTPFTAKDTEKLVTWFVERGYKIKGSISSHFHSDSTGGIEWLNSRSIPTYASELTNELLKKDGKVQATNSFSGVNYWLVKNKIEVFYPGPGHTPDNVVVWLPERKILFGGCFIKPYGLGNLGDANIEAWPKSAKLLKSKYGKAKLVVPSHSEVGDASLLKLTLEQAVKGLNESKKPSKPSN

Beta-lactamase [19] = biological target: Beta-lactamase (Salmonella choleraesuis (strain SC-B67), UniProt Q5J463); assay: Epi-absorbance-based counterscreen for selective VIM-2 inhibitors: dose response biochemical high throughput screening assay to identify inhibitors of TEM-1 serine-beta-lactamase.
Chain of Beta-lactamase (Salmonella choleraesuis (strain SC-B67), UniProt Q5J463) (Q5J463 whole entry): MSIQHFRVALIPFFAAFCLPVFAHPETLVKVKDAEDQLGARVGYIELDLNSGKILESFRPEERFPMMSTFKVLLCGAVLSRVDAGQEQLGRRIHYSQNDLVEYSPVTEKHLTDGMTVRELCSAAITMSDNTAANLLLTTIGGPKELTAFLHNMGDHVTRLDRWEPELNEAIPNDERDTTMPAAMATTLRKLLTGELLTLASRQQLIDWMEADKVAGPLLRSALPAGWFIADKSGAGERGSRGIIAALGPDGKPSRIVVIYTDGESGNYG

Beta-lactamase [20] = biological target: T7, Beta-lactamase; assay: […] counterscreen for selective VIM-2 inhibitors: dose response biochemical high throughput screening assay to identify inhibitors of IMP-1 metallo-beta-lactamase.
[21] = viability loss in HeLa cells – cytotoxicity control for MgcRacGAP inhibitor project, dose response (AID 624300); assay type: functional
Cytochrome P450 2C9 = Cytochrome P450 2C9 (Homo sapiens, UniProt P11712)
Chain of Cytochrome P450 2C9 (P11712 whole entry): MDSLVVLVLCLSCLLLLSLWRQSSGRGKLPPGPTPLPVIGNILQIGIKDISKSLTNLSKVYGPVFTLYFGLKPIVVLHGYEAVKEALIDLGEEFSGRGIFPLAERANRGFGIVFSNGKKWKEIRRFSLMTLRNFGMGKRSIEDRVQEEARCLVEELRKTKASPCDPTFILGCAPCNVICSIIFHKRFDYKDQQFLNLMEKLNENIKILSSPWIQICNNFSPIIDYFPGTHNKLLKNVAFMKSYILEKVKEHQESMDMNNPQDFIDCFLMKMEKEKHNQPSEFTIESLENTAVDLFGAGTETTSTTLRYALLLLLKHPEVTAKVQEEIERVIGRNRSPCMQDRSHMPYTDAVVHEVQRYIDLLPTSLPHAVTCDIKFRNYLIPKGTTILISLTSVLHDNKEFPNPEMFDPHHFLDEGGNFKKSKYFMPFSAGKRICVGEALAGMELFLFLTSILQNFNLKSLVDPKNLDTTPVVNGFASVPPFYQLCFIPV

Protein S100-A4 = Protein S100-A4 (Homo sapiens, UniProt P26447); assay: human S100A4 peptide interaction inhibition curves – biochemical, fluorescence polarization, cherry-picked hits, dose response (AID 687001); assay type: functional
Chain of Protein S100-A4 (P26447 whole entry): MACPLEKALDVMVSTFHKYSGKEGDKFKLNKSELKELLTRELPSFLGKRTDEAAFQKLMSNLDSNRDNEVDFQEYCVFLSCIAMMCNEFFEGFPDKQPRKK

[22] = activation of miR-122 Renilla sensor silencing – cell-based, Huh7 psiCHECK-miR122, Renilla luciferase, cherry-picked, dose response (AID 651956); assay type: functional;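 also: huh7 hepatoma cells stably carrying a psiCHECK-2 miR-122 sensor plasmid; renilla luciferase signal reporting endogenous miR-122 activity after 48 h compound exposure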
[23] = mouse fibroblast viability loss – cell-based, cherry-pick samples, set 2, cytotoxicity control for T. cruzi growth inhibitor project, dose response (AID 651817); assay type: functional; conditions: NIH3T3
[24] = biological target: Palmitoyl-protein thioesterase ABHD10, mitochondrial (Mus musculus, UniProt Q6PE15); assay: Late stage assay provider results from the probe development effort to identify inhibitors of PME-1: fluorescence-based dose response biochemical gel-based competitive Activity-Based Protein Profiling (ABPP) inhibition of ABHD10 Set 1.; assay type: functional
Chain of Palmitoyl-protein thioesterase ABHD10, mitochondrial (Q6PE15 whole entry): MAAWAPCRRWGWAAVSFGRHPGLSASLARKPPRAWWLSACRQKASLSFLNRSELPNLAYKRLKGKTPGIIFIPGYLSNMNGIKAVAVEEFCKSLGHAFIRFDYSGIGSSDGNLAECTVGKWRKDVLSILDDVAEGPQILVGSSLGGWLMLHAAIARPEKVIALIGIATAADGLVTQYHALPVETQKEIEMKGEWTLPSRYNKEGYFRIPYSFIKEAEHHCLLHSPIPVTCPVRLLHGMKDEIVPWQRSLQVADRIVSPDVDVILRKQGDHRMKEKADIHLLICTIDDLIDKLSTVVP

[25] = antileishmanial activity on axenic amastigotes – plate reader, cherry pick, dose response (AID 651891); assay type: functional, cell-based; conditions: Leishmania donovani
[26] = Inhibition of Plasmodium falciparum NF54 Measured in Cell-Based System Using Plate Reader - 2138-11_Inhibitor_Dose_CherryPick_Activity.; assay type: functional
[27] = Inhibition of T. cruzi Tulahuen strain amastigotes in L-6 muscle cells Measured in Cell-Based and Microorganism Combination System Using Plate Reader - 2138-03_Inhibitor_Dose_CherryPick_Activity.; assay type: functional; conditions: Rattus norvegicus, L6
[28] = African trypanosome bloodstream form growth inhibition – STIB900 strain, plate reader, cherry pick, dose response (AID 651893); assay type: functional, cell-based, Trypanosoma brucei rhodesiense; conditions: Trypanosoma brucei
[29] = L6 myocyte viability loss – cell-based, plate reader, cherry-pick, cytotoxicity control, dose response (AID 651896); assay type: functional
[30] = biological target: T8, Sentrin-specific protease 1 (Homo sapiens, UniProt Q9P0U3); assay: Dose response confirmation of small molecule inhibitors of the catalytic domain of the SUMO protease, SENP1 in a FRET assay.; assay type: functional; conditions: read-out: IC50_Mean
T8 sequence (Q9P0U3 whole entry, the tested form may be a part): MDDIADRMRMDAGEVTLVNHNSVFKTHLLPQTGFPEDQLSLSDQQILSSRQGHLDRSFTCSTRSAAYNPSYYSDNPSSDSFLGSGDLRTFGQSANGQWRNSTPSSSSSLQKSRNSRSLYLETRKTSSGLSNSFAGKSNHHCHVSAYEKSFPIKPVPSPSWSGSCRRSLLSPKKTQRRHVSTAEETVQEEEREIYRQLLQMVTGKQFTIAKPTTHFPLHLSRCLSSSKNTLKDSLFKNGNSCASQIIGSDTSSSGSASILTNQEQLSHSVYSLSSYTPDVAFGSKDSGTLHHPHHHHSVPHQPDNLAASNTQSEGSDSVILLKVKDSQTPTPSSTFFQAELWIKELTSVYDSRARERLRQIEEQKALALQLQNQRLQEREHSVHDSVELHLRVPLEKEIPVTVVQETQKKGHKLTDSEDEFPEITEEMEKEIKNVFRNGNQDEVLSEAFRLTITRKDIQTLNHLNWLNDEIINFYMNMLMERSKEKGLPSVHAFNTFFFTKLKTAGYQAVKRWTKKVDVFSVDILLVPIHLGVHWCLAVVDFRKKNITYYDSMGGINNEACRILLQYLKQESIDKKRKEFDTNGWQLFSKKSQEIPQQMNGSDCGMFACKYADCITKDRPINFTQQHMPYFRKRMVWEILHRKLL

[31] = biological target: T8, Sentrin-specific protease 1; assay: SENP1 catalytic domain blockers, concentration series – biochemical, kinetic FRET, dose response (AID 651697); assay type: functional; conditions: read-out: IC50_Mean

## CCC(CO)Oc1cc(NCc2cccc(C)c2)c2ncn(C(C)C)c2c1 (stereo unspecified)
Caspase-3
  IC50: 46.6 µM (active)
[1]
  IC50: 14 µM (active)
[2]
  IC50: 12.6 µM (active)

## Cc1ccc(-c2cn3nc(-c4ccccc4)c(-c4ccccc4)nc3n2)cc1
[3]
  EC50: 1.5 µM (active)
Lethal factor
  EC50: 2 µM (active)
[4]
  EC50: 9.1 µM (active)
[5]
  EC50: 2.5 µM (active)

## CCOc1cc(/C=C2\CN(CC)C/C(=C\c3ccc(O)c(OCC)c3)C2=O)ccc1O
[6]
  AC50: 14.7 µM (active)
[7]
  AC50: 9.14 µM (active)
BJ [8]
  EC50: 0.583 µM (active)
[9]
  AC50: 2.12 µM (active)
[10]
  IC50: 46.6 µM (active)
[11]
  AC50: 12.5 µM (active)
BJ [12]
  EC50: 4.09 µM (active)
BJ [13]
  EC50: 3.15 µM (inconclusive)
[14]
  EC50: 3.65 µM (active)

## COc1ccc(-c2nc(NCCCN(C)C)c3ccccc3n2)cc1
[15]
  AC50: 46.8 µM (active)
[16]
  AC50: 2.39 µM (active)
[17]
  AC50: 6 µM (active)

## CCCCn1c(S)nnc1-c1nn(C)cc1Cl
Beta-lactamase [18]
  IC50: > 59.6 µM (inactive)
Beta-lactamase [19]
  IC50: > 59.6 µM (inactive)
Beta-lactamase [20]
  IC50: > 59.6 µM (inactive)

## CN(C)CCCN1c2ccc3ccccc3c2Sc2cccc(Cl)c21
[21]
  CC50: 42.8 µM (active)
[10]
  IC50: 48.9 µM (active)
Cytochrome P450 2C9
  AC50: 7.94 µM (inconclusive)

## O=C1C(N2CCOCC2)=Cc2cccc3cccc1c23
Protein S100-A4
  AC50: 1.09 µM (active)

## C[C@@H]1CN([C@H](C)CO)S(=O)(=O)c2ccc(/C=C/c3ccccc3)cc2O[C@@H]1CN(C)C(=O)c1cccnc1
[22]
  AC50: 2.93 µM (active)

## Cc1ccc(S(=O)(=O)N(C)C[C@@H]2Oc3c(NC(=O)c4nc5ccccc5s4)cccc3C(=O)N([C@H](C)CO)C[C@@H]2C)cc1
[23]
  AC50: 24.8 µM (active)

## CCCOC(=O)N1C(=O)[C@@](CC)(c2ccc(C)cc2)N1C(=O)OCCC
[24]
  IC50: 0.012 µM (active)

## C[C@@H]1CN([C@H](C)CO)C(=O)c2cccc(NC(=O)c3ccncc3)c2O[C@@H]1CN(C)Cc1ccc(Cl)c(Cl)c1
[25]
  IC50: > 100 µM (inactive)
[26]
  IC50: 5.59 µM (inactive)
[27]
  IC50: 5.59 µM (inactive)
[28]
  IC50: 11.1 µM (inactive)
[29]
  IC50: > 100 µM (inactive)

## COc1cc([C@H]2c3c(cc(OC)c(O)c3OC)C[C@@H](CO)[C@@H]2CO[C@@H]2O[C@H](CO)[C@@H](O)[C@H](O)[C@H]2O)cc(OC)c1O
[30]
  IC50: 14.2 µM (active)
[31]
  IC50: 24.4 µM (inactive)

— ChEMBL document CHEMBL1201862, “PubChem BioAssay data set” (2004)
